According to US20110098288A1, “SULFONAMIDES AS ZAP-70 INHIBITORS” (priority 2008, published 2011):

Experiments:
ZAP-70 = biological target: T1, ZAP-70 (Homo sapiens, UniProt P43403); assay: ZAP-70 kinobeads assay; type: binding; conditions: competition with immobilized aminopyrido-pyrimidine ligand 24 in cell lysate; ZAP-70 detected by dot blot
T1 construct: endogenous in cells; host or cells: cell lysate
T1 sequence (P43403 1-619): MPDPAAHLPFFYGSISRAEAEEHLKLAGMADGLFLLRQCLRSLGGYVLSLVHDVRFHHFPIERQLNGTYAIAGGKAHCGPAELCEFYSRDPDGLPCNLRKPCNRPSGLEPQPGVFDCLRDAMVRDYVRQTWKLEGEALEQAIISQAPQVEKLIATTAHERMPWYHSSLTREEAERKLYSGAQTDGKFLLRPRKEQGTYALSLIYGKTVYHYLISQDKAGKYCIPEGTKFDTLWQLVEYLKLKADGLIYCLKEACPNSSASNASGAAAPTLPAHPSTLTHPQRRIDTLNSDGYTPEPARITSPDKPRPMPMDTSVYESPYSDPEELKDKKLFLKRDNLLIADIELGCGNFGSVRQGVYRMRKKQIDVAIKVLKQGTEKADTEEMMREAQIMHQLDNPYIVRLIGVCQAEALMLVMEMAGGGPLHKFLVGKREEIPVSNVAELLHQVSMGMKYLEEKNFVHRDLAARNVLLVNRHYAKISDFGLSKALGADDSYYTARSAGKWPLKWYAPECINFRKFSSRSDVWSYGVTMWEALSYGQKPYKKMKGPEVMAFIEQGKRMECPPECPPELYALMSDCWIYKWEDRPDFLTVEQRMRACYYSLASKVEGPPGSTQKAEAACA
Procedure, shortened: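 Competition binding format: compounds compete with a bead-immobilized aminopyrido-pyrimidine ligand for ZAP-70 in cell lysate. After bead separation and elution, bound ZAP-70 measured by antibody dot blot with infrared read-out.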

Jurkat cells = assay: Calcium release assay (Fluo-4 flow cytometry after anti-CD3 stimulation); type: cell-based; conditions: Homo sapiens, Jurkat cell line J77, anti-CD3 activation, read-out: IC50 (Calcium ion release in cells)
Description: Compounds of the present invention were tested in a Calcium release assay as described below.
The development of fluorescent probes makes it possible to measure the concentration of intracellular free Calcium ions in single living cells. Cells are first loaded with a cell-permeable Ca^2+-sensitive dye, then the test compound is added. Finally, cells are activated through the T cell receptor with an anti-CD3 antibody shortly before data acquisition on the flow cytometer. The release of Ca^2+ is measured as a function of time after cell stimulation. This protocol describes the flow cytometry method using the Fluo-3 and Fluo-4 dyes (Minta et al., 1989, J. Biol. Chem. 264(14):8171-8178) to measure the intracellular Ca^2+ concentration in Jurkat cells (see also June et al., 1997, Measurement of intracellular calcium ions by flow cytometry. In: Current Protocols in Cytometry (1997) Unit 9.8.1-9.8.19, John Wiley & Sons, Inc.).
In general, cells should be handled in the shortest time possible to assure their stability. Therefore the preparation of all materials in advance is highly recommended as well as using any incubation or centrifugation time to prepare the next steps (e.g. preparing compound dilution or starting the flow cytometer).
1) Prepare a work plan indicating the number of samples to be analyzed including controls. 2) Cell harvest: Centrifuge 50 to 100 ml of a Jurkat cell culture for 5 minutes at 1100 rpm. Discard the supernatant, pool the resuspended cell pellets in a single 50 ml Falcon tube, and fill up to 50 ml with PBS—CaCl2 (without FCS). Centrifuge again sample again. 3) Resuspend cell pellet with PBS—CaCl2 (without FCS) to achieve a concentration not lower than 10×10^6 cells/ml. Prepare an adequate dilution to evaluate the cell concentration and count the cells. 4) Separate the volume of cells needed to be loaded (for example […] for 20 samples) in a 50 ml Falcon tube. Fill up with PBS—CaCl2 to 900 μl for 107 cells. 5) Prepare in the dark a 1:1 mix of FLUO-4 (1 mM)+Pluronic F-127 (20%). 5 μl of Fluo-4 are needed per 107 cells. 6) Prepare a 1/10 dilution of this mix with PBS—CaCl2 (in the dark; for example 5 μl Fluo-4+5 μl F-127 completed to 100 μl). 7) Add the dye solution to the cells. […] 8) Incubate the sample for 30 minutes in a cell incubator (37° C., 5% CO2). Mix from time to time. 9) During this time prepare the adequate test compound dilution in PBS—CaCl2 (with 10% FCS). The solution should be 10 times more concentrated than the desired final concentration. Vortex each dilution. Prepare also the antibody dilutions: anti-CD3 (1/200) and GAM (1/25). 10) Label FACS tubes and distribute in the corresponding tube 30 μl of the compound dilution or only buffer for the control tubes. 11) After 30 minutes of incubation wash the cells twice in PBS—CaCl2 (with 10% FCS). During the washing steps make sure that the flow cytometer is already “ON” in order to warm the laser. 12) Resuspend the cell pellet in PBS—CaCl2 (with 10% FCS) at a concentration of 1.5×10^6 cells/ml. 13) Distribute 300 μl of cell suspension into the FACS tubes and mix gently. The compound incubation is starting. Keep samples at room temperature in the dark. 14) Open the settings of the cytometer. It is advised to have a template ready which is used for all measurements. Settings of the machine should also be the same from one experiment to the other which permits to evaluate the reproducibility of the cell preparation. 15) In Setup modus control your cell preparation on the cytometer. Cells should fit in the pre-defined gates. 16) During the compound incubation time, check also that cells are responding to the anti-CD3 activation as expected. Set a timer at 8 sec. Add 6 μl of anti-CD3 dilution (0.2 μg/ml final) and mix gently. Add 1 μl of GAM dilution (0.75 μg/ml final) and mix gently. Incubate the samples in water bath at 37° C. while starting timer. After 8 seconds of incubation, acquire data at medium speed for 200 seconds. […]

Structure (SMILES) | IC50 (ZAP-70) [nM] | IC50 (Jurkat cells) [nM]
CS(=O)(=O)Nc1ccccc1Nc1nc(Nc2cccc(-n3cncn3)c2)ncc1F [Example 21, N-(2-(2-(3-(1H-1,2,4-triazol-1-yl)phenylamino)-5-fluoropyrimidin-4-ylamino)phenyl)methanesulfonamide] | 1000 to 10000 | 100 to 1000
CCN(c1ccccc1Nc1nc(Nc2ccc(OCCN3CCCCC3)cc2)ncc1F)S(C)(=O)=O [Example 158, N-ethyl-N-(2-(5-fluoro-2-(4-(2-(piperidin-1-yl)ethoxy)phenylamino)pyrimidin-4-ylamino)phenyl)methanesulfonamide] | 100 to 1000 | < 100
COc1cc(Nc2ncc(F)c(Nc3cccc(Cl)c3NS(C)(=O)=O)n2)cc(OC)c1OC [Example 184, N-(2-chloro-6-(5-fluoro-2-(3,4,5-trimethoxyphenylamino)pyrimidin-4-ylamino)phenyl)methanesulfonamide] | 100 to 1000 | 100 to 1000
CN1C(=O)COc2cc(Nc3ncc(F)c(Nc4ccccc4NS(C)(=O)=O)n3)ccc21 [Example 25, N-(2-(5-fluoro-2-(4-methyl-3-oxo-3,4-dihydro-2H-benzo[b][1,4]oxazin-7-ylamino)pyrimidin-4-ylamino)phenyl)methanesulfonamide] | 100 to 1000 | 100 to 1000
Cc1cccc(Nc2nc(Nc3cccc(OCCN4CCCCC4)c3)ncc2F)c1NS(C)(=O)=O [Example 112, N-(2-(5-fluoro-2-(3-(2-(piperidin-1-yl)ethoxy)phenylamino)pyrimidin-4-ylamino)-6-methylphenyl)methanesulfonamide] | < 100 | 100 to 1000
COc1ccc(Nc2ncc(Br)c(Nc3ccccc3NS(C)(=O)=O)n2)cc1OC [Example 107, N-(2-(5-bromo-2-(3,4-dimethoxyphenylamino)pyrimidin-4-ylamino)phenyl)methanesulfonamide] | < 100 | < 100
COc1ccc(Nc2nc(Nc3cc(OC)c(OC)c(OC)c3)ncc2F)c(NS(C)(=O)=O)c1 [Example 173, N-(2-(5-fluoro-2-(3,4,5-trimethoxyphenylamino)pyrimidin-4-ylamino)-5-methoxyphenyl)methanesulfonamide] | < 100 | < 100
CN1CCN(CCCOc2ccc(Nc3ncc(F)c(Nc4ccccc4NS(C)(=O)=O)n3)cc2)CC1 [Example 91, N-(2-(5-fluoro-2-(4-(3-(4-methylpiperazin-1-yl)propoxy)phenylamino)pyrimidin-4-ylamino)phenyl)methanesulfonamide] | 100 to 1000 | 100 to 1000
CS(=O)(=O)Nc1ccccc1Nc1nc(Nc2ccc(OCCN3CCCC3)cc2)ncc1F [Example 96, N-(2-(5-fluoro-2-(4-(2-(pyrrolidin-1-yl)ethoxy)phenylamino)pyrimidin-4-ylamino)phenyl)methanesulfonamide] | 100 to 1000 | 100 to 1000
COc1cc(Nc2ncc(F)c(Nc3ccccc3NS(C)(=O)=O)n2)ccc1N1CCCC1 [Example 88, N-(2-(5-fluoro-2-(3-methoxy-4-(pyrrolidin-1-yl)phenylamino)pyrimidin-4-ylamino)phenyl)methanesulfonamide] | 100 to 1000 | 100 to 1000
Cc1cccc(Nc2nc(Nc3cccc(OCCN4CCCCC4)c3)ncc2Cl)c1NS(C)(=O)=O [Example 128, N-(2-(5-chloro-2-(3-(2-(piperidin-1-yl)ethoxy)phenylamino)pyrimidin-4-ylamino)-6-methylphenyl)methanesulfonamide] | < 100 | < 100
CS(=O)(=O)Nc1ccccc1Nc1nc(Nc2ccc(OCCCN3CCCCC3)cc2)ncc1F [Example 90] | 100 to 1000 | 100 to 1000
CNCCS(=O)(=O)Nc1ccccc1Nc1nc(Nc2cc(OC)c(OC)c(OC)c2)ncc1F [Example 62, N-(2-(5-fluoro-2-(3,4,5-trimethoxyphenylamino)pyrimidin-4-ylamino)phenyl)-2-(methylamino)ethanesulfonamide] | 1000 to 10000 | 100 to 1000
CS(=O)(=O)Nc1ccccc1Nc1nc(Nc2cccc(OCCN3CCCCC3)c2)ncc1Cl [Example 124, N-(2-(5-chloro-2-(3-(2-(piperidin-1-yl)ethoxy)phenylamino)pyrimidin-4-ylamino)phenyl)methanesulfonamide] | < 100 | < 100
CCOc1ccc(Nc2nc(Nc3cc(OC)c(OC)c(OC)c3)ncc2F)c(NS(C)(=O)=O)c1 [Example 175, N-(5-ethoxy-2-(5-fluoro-2-(3,4,5-trimethoxyphenylamino)pyrimidin-4-ylamino)phenyl)methanesulfonamide] | < 100 | < 100
CCN(CC)CCOc1cccc(Nc2ncc(Cl)c(Nc3ccccc3NS(C)(=O)=O)n2)c1 [Example 126, N-(2-(5-chloro-2-(3-(2-(diethylamino)ethoxy)phenylamino)pyrimidin-4-ylamino)phenyl)methanesulfonamide] | < 100 | < 100
CN1CCN(C)C(COc2cccc(Nc3ncc(Cl)c(Nc4ccccc4NS(C)(=O)=O)n3)c2)C1 (stereo not shown) [Example 147, N-(2-(5-chloro-2-(3-((1,4-dimethylpiperazin-2-yl)methoxy)phenylamino)pyrimidin-4-ylamino)phenyl)methanesulfonamide] | < 100 | < 100
CCOc1cccc(Nc2nc(Nc3cc(OC)c(OC)c(OC)c3)ncc2F)c1NS(C)(=O)=O [Example 166, N-(2-ethoxy-6-(5-fluoro-2-(3,4,5-trimethoxyphenylamino)pyrimidin-4-ylamino)phenyl)methanesulfonamide] | < 100 | 100 to 1000
COc1cc(Nc2ncc(Br)c(Nc3ccccc3NS(C)(=O)=O)n2)cc(OC)c1OC [Example 70, N-(2-(5-bromo-2-(3,4,5-trimethoxyphenylamino)pyrimidin-4-ylamino)phenyl)methanesulfonamide] | < 100 | 100 to 1000
COc1cc(Nc2ncc(F)c(Nc3ccccc3NS(=O)(=O)c3ccsc3)n2)cc(OC)c1OC [Example 49, N-(2-(5-fluoro-2-(3,4,5-trimethoxyphenylamino)pyrimidin-4-ylamino)phenyl)thiopehene-3-sulfonamide] | 1000 to 10000 | 100 to 1000
